Data from patent US4187245A, “Hydroxypropylene-amino-phosphonic-sulfonic acids” (Petrolite Corporation, priority 1978, dated 1980).
Where a name gives a salt, the structure may show the parent alone.

Tests used:
[1] = prior-art background; cited from earlier work
[2] = Calcium Scale Inhibition Test; settings: 180° F., samples at 2 and 4 hours
Description: Calcium Scale Inhibition Test
The procedure utilized to determine the effectiveness of scale inhibitors in regard to calcium scale is as follows:
Several 50 ml. samples of a 0.04 sodium bicarbonate solution are placed in 100 ml. bottles. To these solutions is added the inhibitor in various known concentrations. 50 ml. samples of a 0.02 M CaCl2 solution are then added.
A total hardness determination is then made on the 50--50 mixture utilizing the well known Schwarzenbach titration. The samples are placed in a water bath and heated at 180° F. 10 ml. samples are taken from each bottle at 2 and 4 hour periods. These samples are filtered through millipore filters and the total hardness of the filtrates are determined by titration. [formula]

Structure (SMILES)	% Inhibition (Calcium Scale Inhibition) ([2]; 25 ppm)	% Inhibition (Calcium Scale Inhibition) ([2]; 50 ppm)	other results
O=C(O)CN(CCN(CC(=O)O)CC(=O)O)CC(=O)O [ethylenediamine tetracetic acid salts]	–	–	threshold activities [1]: no threshold activities
O=P(O)(O)CN(CCN(CC(O)CS(=O)(=O)O)CP(=O)(O)O)CC(O)CS(=O)(=O)O (stereo not drawn) [Example 17]	96%	100%	% Inhibition (Calcium Scale Inhibition) ([2]; 15 ppm): 72%
NCCNCC(O)CS(=O)(=O)O (stereo not drawn) [Example 7]	–	50%	–
NCCNCCNCC(O)CS(=O)(=O)O (stereo not drawn) [Example 9]	–	45%	–
O=S(=O)(O)CC(O)CNCCNCC(O)CS(=O)(=O)O (stereo not drawn) [Example 8]	–	45%	–
O=P(O)(O)CN(CCN(CC(O)CS(=O)(=O)O)CP(=O)(O)O)CCN(CC(O)CS(=O)(=O)O)CP(=O)(O)O (stereo not drawn) [Example 19]	86%	100%	–
O=S(=O)(O)CC(O)CNCCNCCNCC(O)CS(=O)(=O)O (stereo not drawn) [Example 10]	45%	–	–
O=P(O)(O)CN(CCN(CP(=O)(O)O)CP(=O)(O)O)CC(O)CS(=O)(=O)O (stereo not drawn) [Example 16]	100%	–	% Inhibition (Calcium Scale Inhibition) ([2]; 10 ppm): 91%
